Patent US7300946B2, “N-(substituted arylmethyl)-4-(disubstituted methyl) piperidines and pyridines” (Bayer CropScience AG, priority 2002, dated 2007)

Test system: tobacco budworm (Heliothis virescens [Fabricius])
Experiment: surface-treated diet test against the tobacco budworm
Format: in vivo
Conditions: tobacco budworm second instar larvae; 0.25 millimoles of candidate insecticide on the surface of the diet; five-day exposure; compared to total number of insects infested
Procedure, shortened: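 Wheat germ artificial diet surface-treated with 40 µL of 50 mM DMSO stock diluted 1:7 in 1:1 water/acetone (0.25 millimolar on diet), or sub-multiples for rate tests. One second-instar larva per well, 25° C, 60% RH, 5 days; percent weight inhibition vs DMSO controls and percent mortality.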

SMILES | Percent Mortality
O=C(Nc1cc(F)cc(F)c1)OC(c1ccc(Cl)c(Cl)c1)C1CCN(Cc2ccc(Oc3ncccn3)cc2)CC1 (stereo not drawn) [Compound 723] | 100%
O=C(Nc1cc(F)cc(F)c1)OC(C1=CC[N+]([O-])(Cc2ccc(Oc3ncccn3)cc2)CC1)c1ccc(C(F)(F)F)cc1 (stereo not drawn) [Compound 787] | 100%
O=C(Nc1cc(F)cc(F)c1)OC(c1ccc(Cl)cc1)C1CCN(Cc2ccc(Oc3ncccn3)cc2)CC1 (stereo not drawn) [Compound 714] | 100%
C=C(C)COC(=O)Nc1ccc(CN2CCC(=C(c3ccc(Cl)cc3)c3ccc(Cl)cc3)CC2)cc1 [Compound 800] | 0%
O=C(Nc1cc(F)cc(F)c1)OC(c1ccc(C(F)(F)F)cc1)C1CC[N+]([O-])(Cc2ccc(-c3ccccc3)cc2)CC1 (stereo not drawn) [Compound 748] | 100%
O=C(Nc1ccc(C(F)(F)F)cc1)OC(c1ccc(Cl)c(Cl)c1)C1CCN(Cc2ccc(Oc3ncccn3)cc2)CC1 (stereo not drawn) [Compound 725] | 100%
[O-][N+]1(Cc2ccc(Oc3ncccn3)cc2)CCC(=C(c2ccc(Cl)cc2)c2ccc(C(F)(F)F)cc2)CC1 (stereo not drawn) [Compound 847] | 100%
[O-][N+]1(Cc2ccc(Oc3ncccn3)cc2)CCC(=C(c2ccc(C(F)(F)F)cc2)c2cccc(C(F)(F)F)c2)CC1 (stereo not drawn) [Compound 853] | 100%
O=C(Nc1cc(F)cc(F)c1)OC(c1ccc(C(F)(F)F)cc1)C1CC[N+]([O-])(Cc2ccc(Oc3cc(C(F)(F)F)ccn3)cc2)CC1 (stereo not drawn) [Compound 760] | 100%
CC(C)NC(=S)OC(c1ccc(C(F)(F)F)cc1)C1CCN(Cc2ccc(Oc3ccccn3)cc2)CC1 (stereo not drawn) [Compound 777] | 67%
CCCOc1ccc(C[N+]2([O-])CCC(C(OC(=O)Nc3cc(F)cc(F)c3)c3ccc(C(F)(F)F)cc3)CC2)cc1 (stereo not drawn) [Compound 741] | 100%
C#CCOC(=O)Nc1ccc(C[N+]2([O-])CCC(=C(c3ccc(C(F)(F)F)cc3)c3ccc(C(F)(F)F)cc3)CC2)cc1 (stereo not drawn) [Compound 838] | 100%
CNC(=O)Oc1ccc(CN2CCC(=C(c3ccc(C(F)(F)F)cc3)c3ccc(C(F)(F)F)cc3)CC2)cc1 [Compound 790] | 100%
CC(=O)Oc1ccc(CN2CCC(=C(c3ccc(C(F)(F)F)cc3)c3ccc(C(F)(F)F)cc3)CC2)cc1 [Compound 788] | 33%
O=C(Nc1ccc(Cl)cc1)OC(c1ccc(OC(F)(F)F)cc1)C1CCN(Cc2ccc(Oc3cccc[n+]3[O-])cc2)CC1 (stereo not drawn) [Compound 706] | 100%

Same assay, conditions: tobacco budworm second instar larvae; 0.25 millimoles of candidate insecticide on the surface of the diet; five-day exposure; inhibition of insect weight relative to untreated controls

SMILES | Percent Growth Inhibition
O=C(Nc1cc(F)cc(F)c1)OC(c1ccc(Cl)c(Cl)c1)C1CCN(Cc2ccc(Oc3ncccn3)cc2)CC1 (stereo not drawn) [Compound 723] | 100%
O=C(Nc1cc(F)cc(F)c1)OC(C1=CC[N+]([O-])(Cc2ccc(Oc3ncccn3)cc2)CC1)c1ccc(C(F)(F)F)cc1 (stereo not drawn) [Compound 787] | 100%
O=C(Nc1cc(F)cc(F)c1)OC(c1ccc(Cl)cc1)C1CCN(Cc2ccc(Oc3ncccn3)cc2)CC1 (stereo not drawn) [Compound 714] | 100%
C=C(C)COC(=O)Nc1ccc(CN2CCC(=C(c3ccc(Cl)cc3)c3ccc(Cl)cc3)CC2)cc1 [Compound 800] | 86%
O=C(Nc1cc(F)cc(F)c1)OC(c1ccc(C(F)(F)F)cc1)C1CC[N+]([O-])(Cc2ccc(-c3ccccc3)cc2)CC1 (stereo not drawn) [Compound 748] | 100%
O=C(Nc1ccc(C(F)(F)F)cc1)OC(c1ccc(Cl)c(Cl)c1)C1CCN(Cc2ccc(Oc3ncccn3)cc2)CC1 (stereo not drawn) [Compound 725] | 100%
[O-][N+]1(Cc2ccc(Oc3ncccn3)cc2)CCC(=C(c2ccc(Cl)cc2)c2ccc(C(F)(F)F)cc2)CC1 (stereo not drawn) [Compound 847] | 100%
[O-][N+]1(Cc2ccc(Oc3ncccn3)cc2)CCC(=C(c2ccc(C(F)(F)F)cc2)c2cccc(C(F)(F)F)c2)CC1 (stereo not drawn) [Compound 853] | 100%
O=C(Nc1cc(F)cc(F)c1)OC(c1ccc(C(F)(F)F)cc1)C1CC[N+]([O-])(Cc2ccc(Oc3cc(C(F)(F)F)ccn3)cc2)CC1 (stereo not drawn) [Compound 760] | 100%
CC(C)NC(=S)OC(c1ccc(C(F)(F)F)cc1)C1CCN(Cc2ccc(Oc3ccccn3)cc2)CC1 (stereo not drawn) [Compound 777] | 100%
CCCOc1ccc(C[N+]2([O-])CCC(C(OC(=O)Nc3cc(F)cc(F)c3)c3ccc(C(F)(F)F)cc3)CC2)cc1 (stereo not drawn) [Compound 741] | 100%
C#CCOC(=O)Nc1ccc(C[N+]2([O-])CCC(=C(c3ccc(C(F)(F)F)cc3)c3ccc(C(F)(F)F)cc3)CC2)cc1 (stereo not drawn) [Compound 838] | 100%
CNC(=O)Oc1ccc(CN2CCC(=C(c3ccc(C(F)(F)F)cc3)c3ccc(C(F)(F)F)cc3)CC2)cc1 [Compound 790] | 100%
CC(=O)Oc1ccc(CN2CCC(=C(c3ccc(C(F)(F)F)cc3)c3ccc(C(F)(F)F)cc3)CC2)cc1 [Compound 788] | 87%
O=C(Nc1ccc(Cl)cc1)OC(c1ccc(OC(F)(F)F)cc1)C1CCN(Cc2ccc(Oc3cccc[n+]3[O-])cc2)CC1 (stereo not drawn) [Compound 706] | 100%

Same assay, conditions: tobacco budworm second instar larvae; surface-treated diet; 0.25 millimoles of candidate insecticide on the surface of the diet; five-day exposure; compared to total number of insects infested

SMILES | Percent Mortality
CCn1nnc(-c2ccc(CN3CCC(C(OC(=O)Nc4ccc(-c5ccccc5)cc4)c4ccc(OC)cc4)CC3)cc2)n1 (stereo not drawn) [Compound 607] | 100%
O=C(NCc1ccc(Cl)cc1Cl)OC(c1ccc(C(F)(F)F)cc1)C1CCN(Cc2ccc(Oc3ccccn3)cc2)CC1 (stereo not drawn) [Compound 678] | 100%
O=C(Nc1cccnc1)OC(c1ccc(C(F)(F)F)cc1)C1CCN(Cc2ccc(Oc3ccccn3)cc2)CC1 (stereo not drawn) [Compound 444] | 0%
CCON=Cc1ccc(CN2CCC(C(OC(=O)Nc3ccc(F)c(F)c3F)c3ccc(C(F)(F)F)cc3)CC2)cc1 (stereo not drawn) [Compound 201] | 100%
C#CCON=Cc1ccc(CN2CCC(C(OC(=O)Nc3cc(F)cc(F)c3)c3ccc(C(F)(F)F)cc3)CC2)cc1 (stereo not drawn) [Compound 540] | 100%
CCn1nnc(-c2ccc(CN3CCC(C(OC(=O)Nc4cccc(C(F)(F)F)c4)c4ccc(OC)cc4)CC3)cc2)n1 (stereo not drawn) [Compound 605] | 100%
O=C(Nc1ccc(F)cc1)OC(c1ccc(C(F)(F)F)cc1)C1CCN(Cc2ccc(Oc3ccccn3)cc2)CC1 (stereo not drawn) [Compound 675] | 100%
O=C(Nc1ccc(Cl)cc1)OC(c1ccc(F)cc1)C1CCN(Cc2ccc(Oc3ccccn3)cc2)CC1 (stereo not drawn) [Compound 639] | 100%
CCCOc1ccc(CN2CCC(C(OC(=O)Nc3cc(F)cc(F)c3)c3cccc(C(F)(F)F)c3)CC2)cc1 (stereo not drawn) [Compound 487] | 100%

Same assay, conditions: tobacco budworm second instar larvae; surface-treated diet; 0.25 millimoles of candidate insecticide on the surface of the diet; five-day exposure; inhibition of insect weight relative to untreated controls

SMILES | Percent Growth Inhibition
CCn1nnc(-c2ccc(CN3CCC(C(OC(=O)Nc4ccc(-c5ccccc5)cc4)c4ccc(OC)cc4)CC3)cc2)n1 (stereo not drawn) [Compound 607] | 100%
O=C(NCc1ccc(Cl)cc1Cl)OC(c1ccc(C(F)(F)F)cc1)C1CCN(Cc2ccc(Oc3ccccn3)cc2)CC1 (stereo not drawn) [Compound 678] | 100%
O=C(Nc1cccnc1)OC(c1ccc(C(F)(F)F)cc1)C1CCN(Cc2ccc(Oc3ccccn3)cc2)CC1 (stereo not drawn) [Compound 444] | 96%
CCON=Cc1ccc(CN2CCC(C(OC(=O)Nc3ccc(F)c(F)c3F)c3ccc(C(F)(F)F)cc3)CC2)cc1 (stereo not drawn) [Compound 201] | 100%
C#CCON=Cc1ccc(CN2CCC(C(OC(=O)Nc3cc(F)cc(F)c3)c3ccc(C(F)(F)F)cc3)CC2)cc1 (stereo not drawn) [Compound 540] | 100%
CCn1nnc(-c2ccc(CN3CCC(C(OC(=O)Nc4cccc(C(F)(F)F)c4)c4ccc(OC)cc4)CC3)cc2)n1 (stereo not drawn) [Compound 605] | 100%
O=C(Nc1ccc(F)cc1)OC(c1ccc(C(F)(F)F)cc1)C1CCN(Cc2ccc(Oc3ccccn3)cc2)CC1 (stereo not drawn) [Compound 675] | 100%
O=C(Nc1ccc(Cl)cc1)OC(c1ccc(F)cc1)C1CCN(Cc2ccc(Oc3ccccn3)cc2)CC1 (stereo not drawn) [Compound 639] | 100%
CCCOc1ccc(CN2CCC(C(OC(=O)Nc3cc(F)cc(F)c3)c3cccc(C(F)(F)F)c3)CC2)cc1 (stereo not drawn) [Compound 487] | 100%
